Assay results: ChEMBL document CHEMBL1146687, “Novel semi-synthetic nocathiacin antibiotics: synthesis and antibacterial activity of bis- and mono-O-alkylated derivatives” (Bioorg Med Chem Lett, 2004)
Values after ≈ are worked out from the molar mass of the structure shown.

Key:
Assay type in all cases: functional
Enterococcus faecalis = assay: In vitro antibacterial activity against Enterococcus faecalis
Mus musculus [1] = assay: In vivo efficacy (sc) tested for protection against staphylococcus infections in mice; 1.1-3.3; conditions: read-out: PD50
Staphylococcus aureus [2] = assay: In vitro antibacterial activity against Staphylococcus aureus
Staphylococcus aureus [3] = assay: In vivo efficacy;(sc) tested for protection against staphylococcus infections in mice; conditions: read-out: PD50
Staphylococcus aureus [4] = assay: In vitro antibacterial activity against […]; 0.003-0.007
Streptococcus pneumoniae [5] = assay: In vitro antibacterial activity against Streptococcus pneumoniae; […]
Mus musculus [6] = assay: In vivo efficacy (sc) tested for protection against staphylococcus infections in mice; 0.3-2.8; conditions: read-out: PD50
Staphylococcus aureus [7] = assay: In vitro antibacterial activity against […]; 0.0070-0.03
Streptococcus pneumoniae [8] = assay: In vitro antibacterial activity against Streptococcus pneumoniae

| Compound | MIC (Enterococcus faecalis) | ED50 (Mus musculus [1]) | MIC (Staphylococcus aureus [2]) | ED50 (Staphylococcus aureus [3]) | MIC (Staphylococcus aureus [4]) | MIC (Streptococcus pneumoniae [5]) | ED50 (Mus musculus [6]) | MIC (Staphylococcus aureus [7]) | MIC (Streptococcus pneumoniae [8]) |
| --- | --- | --- | --- | --- | --- | --- | --- | --- | --- |
| CN[C@H](CC(C)C)C(=O)N[C@H]1C(=O)N[C@@H](CC(N)=O)C(=O)N[C@H]2C(=O)N[C@H]3C(=O)N[C@H](C(=O)N[C@H](C(=O)O)c4cc(O)cc(O)c4-c4cc3ccc4O)[C@H](O)c3ccc(c(Cl)c3)Oc3cc2cc(c3O[C@@H]2O[C@H](CO)[C@@H](O)[C@H](O)[C@H]2O[C@H]2C[C@](C)(N)[C@H](O)[C@H](C)O2)Oc2ccc(cc2Cl)[C@H]1O [VANCOMYCIN] | < 0.5 µg/mL | < 3.3 mg/kg | 0.2 µg/mL (≈ 0.138 µM) | – | – | – | – | – | – |
| C=C(NC(=O)c1csc(-c2nc3c(cc2OC)-c2nc(cs2)C(=O)N[C@@H]([C@@H](C)O)C(=O)N/C(=C(\C)OC)c2nc(cs2)C(=O)N[C@@H]2c4nc(cs4)C(=O)N[C@@H](COC(=O)c4c5c6c(cccc6n4OC)COC(=O)[C@@H](O[C@H]4C[C@](C)(O)[C@H](N(C)C)[C@H](C)O4)[C@H]2OC5)c2nc-3cs2)n1)C(N)=O | 0.015 µg/mL (≈ 0.0102 µM) | – | – | 3.7 mg/kg | < 0.007 µg/mL | < 0.001 µg/mL | – | – | – |
| C=C(NC(=O)c1csc(-c2nc3c(cc2O)-c2nc(cs2)C(=O)N[C@@H]([C@@H](C)O)C(=O)N/C(=C(\C)OC)c2nc(cs2)C(=O)N[C@@H]2c4nc(cs4)C(=O)N[C@@H](COC(=O)c4c5c6c(cccc6n4O)COC(=O)[C@@H](O[C@H]4C[C@](C)(O)[C@H](N(C)C)[C@H](C)O4)[C@H]2OC5)c2nc-3cs2)n1)C(N)=O [MJ347-81F4 A] | 0.03 µg/mL (≈ 0.0209 µM) | – | – | – | – | – | < 2.8 mg/kg | < 0.03 µg/mL | 0.002 µg/mL (≈ 0.00139 µM) |
